System: prostate
Test: Clinical trials of photodynamic therapy of prostate cancer: action radius of the optical fiber fitted to the actual necrotic volume
Assay type: in vivo, patients
Details: 28 clinical trials; 4 mg/kg; optical fiber at 763 nm; insertion lengths 15 to 40 mm; accuracy 1.08 mm
From the text: In this study, the Applicant has validated its modeling method for the use of an optical fiber with specific wavelength of 763 nm, in association with the WST11 photosensitive agent, for the treatment of prostate cancer. It is easily understood that the principles of modeling, as well as those of assistance in planning resulting from this modeling, can be used for other combinations of optical fibers and photosensitive agents, and applied to the treatment of other organs.
In reference to FIG. 2, the modeling method 100 thus includes a preliminary step 110 of constructing a database of results from clinical trials conducted previously on a plurality of patients using the same photosensitive material at the same dosage, such as 4 mg/kg of WST11, associated with at least one optical fiber that we seek to model. This construction consists of storing one record per patient in the database with at least the following elements: […]
Once steps 120 and 130 have been carried out, the only thing left to do is to determine, in a step 140 referenced in FIG. 2, the action radius R of an optical fiber by correlation, for each patient in the database, with the total theoretical action volume calculated with the measured volume of the actual necrotic area. […]

With `CC[C@H]1c2cc3[n-]c(c(CC(=O)OC)c4nc(cc5[n-]c(cc(n2)[C@@H]1C)c(C(C)=O)c5C)[C@@H](C)[C@@H]4CCC(=O)[O-])c(C(=O)NCCS(=O)(=O)[O-])c3C.[H+].[H+].[Pd+2]` [WST11] the “average action radius R of an optical fiber (value for which theoretical volume was closest to the volume of the actual necrotic area)” value was 7.49 mm.

— patent US10204206B2, “Modelling of the action of an optical fiber in photodynamic therapy treatment, and assistance in the planning of said treatment” (STEBA MAOR SA, priority 2010, dated 2019)
